Measurements reported in patent US20200069775A1, “BRAIN OSTEOCALCIN RECEPTOR AND COGNITIVE DISORDERS” (The Trustees of Columbia University in the City of New York, priority 2017, published 2020).

Key:
[1] = tested on: brainstem neurons (dorsal raphe 5-HT neurons, locus coeruleus, GABAergic interneurons); assay: Whole cell current clamp recording in brainstem slices; format: cell-based, mouse; settings: whole cell current clamp
Procedure: Brain slice preparations and electrophysiological recordings were performed according to methods known in the art. Briefly, WT mice were anesthetized with ether and then decapitated. The brains were rapidly removed and immersed in an oxygenated bath solution at 40° C. containing (in mM): sucrose 220, KCl 2.5, CaCl2 1, MgC12 6, NaH2PO4 1.25, NaHCO3 26, and glucose 10 pH 7.3 with NaOH. Coronal slices (350 μm thick) containing dorsal raphe (DR) were cut on a vibratome and maintained in a holding chamber with artificial cerebrospinal fluid (ACSF) (bubbled with 5% CO2 and 95% O2) containing (in mM): NaCl 124, KCl 3, CaCl2 2, MgCl2 2, NaH2PO4 1.23, NaHCO3 26, glucose 10, pH 7.4 with NaOH, and were transferred to a recording chamber constantly perfused with bath solution (330 C) at 2 ml/min after at least a 1 hr recovery. Whole-cell current clamp was performed to observe action potentials in DR serotoninergic (5-HT) neurons with a Multiclamp 700A amplifier (Axon instrument, CA). Patch pipettes with a tip resistance of 4-6 MΩ were made of borosilicate glass (World Precision Instruments) with a Sutter pipette puller (P-97) and filled with a pipette solution containing (in mM): K-gluconate (or Cs-gluconate) 135, MgCl2 2, HEPES 10, EGTA 1.1, Mg-ATP 2, Na2-phosphocreatine 10, and Na2-GTP 0.3, pH 7.3 with KOH. After a giga-Ohm (GΩ) seal and whole-cell access were achieved, the series resistance (between 20 and 40 MΩ) was partially compensated by the amplifier. […] All data were sampled at 3-10 kHz and filtered at 1-3 kHz with an Apple Macintosh computer using Axograph 4.9 (Axon Instruments). Electrophysiological data were analyzed with Axograph 4.9 and plotted with Igor Pro software (WaveMetrics, Lake Oswego, Oreg.).

WT 2-month old mice = assay: ICV delivery in WT adult mice, D/LT and EPMT; format: in vivo, mouse; settings: ICV 3 or 10 ng/hour, one month
Procedure: Each mouse was allowed to explore the apparatus for 5 min. Global activity was assessed by measuring the number of entries […] (David et al, 2009, Neuron 62:479-493). Anxiety was assessed by comparing the time spent in the open arms.
The test was performed in a quiet, darkened room. Mice were individually housed in cages containing a handful of bedding from their home cage and acclimated to the room at least 1 h before the test. Naive mice were placed individually in the testing chamber in the dark compartment. The test was 5 min in duration, and time spent and number of entries in light compartments were recorded a highly trained observer, blind to the genotype of the mice.
To determine if osteocalcin is sufficient to improve cognitive function in adult mice, WT 2-month old mice were implanted with ICV pumps delivering vehicle (PBS), or 3, 10, or 30 ng/hr recombinant uncarboxylated full-length mouse osteocalcin for a period of one month. After one month of infusion, animals were subjected to behavioral testing.

16 month old WT mice = assay: ICV delivery in aged WT mice, modified Novel Object Recognition test; format: in vivo, mouse; settings: ICV 10 ng/hr, one month
Procedure: ICV pumps delivering (10 ng/hr) recombinant uncarboxylated full-length mouse osteocalcin were implanted in 16 month old WT mice. After an infusion period of one month, the mice were subjected to a modified version of the Novel Object Recognition test, to assay memory and hippocampal function. Briefly, mice were given five 5 minute exposures, with 3 minute resting intervals between exposures, to a novel arena containing two objects. During exposures 1-4, mice were habituated to these two objects, which elicited equal amounts of exploration. In the fifth exposure, one of the objects was replaced with a novel object.

[2] = tested on: cAMP production in hippocampal neurons; assay: cAMP accumulation in primary hippocampal neurons; format: cell-based, mouse; settings: cultured hippocampal neurons
Procedure: Hippocampal neurons were isolated from mouse embryos (embryonic day 16.5). After dissection, hippocampi were digested in Tryspin 0.05% and EDTA 0.02% for 15 minutes at 37° C. After 3 wash in DMEM (high glucose and sodium pyruvate) supplemented with 10% of fetal bovine serum, 100 U/mL Penicillin-Streptomycin and 1× GlutaMAX, cells were dissociated by pipetting up and down and then plated. After the culture was established, medium was changed 2 times per week with Neurobasal medium supplemented with B-27 supplement and 1× GlutaMAX. Experiments were performed on cells after 15 days of culture (DIV 15).
For Western blotting, frozen hippocampi from adult mice were lysed and homogenized in 250 µl tissue lysis buffer (25 mM Tris HCl 7.5; 100 mM NaF; 10 mM Na4P2O7; 10 mmM EDTA; 1% NP 40). Proteins were transferred to nitrocellulose membranes, and blocked with TBST-5% BSA for 1 hour. […] Western blot bands were quantified using ImageJ software. cAMP accumulation was measured in primary hippocampal neurons by using cAMP Parameter Assay Kit (R&D systems) and performed in primary hippocampal neurons (DIV15) following manufacturer instructions. For IP1 accumulation was determined in primary hippocampal neurons (DIV15) by using IP-One ELISA assay kit (Cisbio) following manufacturer instructions. […]

[3] = tested on: Tph2, Th, Gad1 expression in brainstem and midbrain explants; assay: Gene expression (qPCR) in brainstem and midbrain explants; format: cell-based, mouse
Procedure: For gene expression studies, RNA was isolated from primary neurons or tissue using TRIZOL® (Invitrogen). cDNA synthesis was performed following a standard protocol from Invitrogen and qPCR analyses were done using specific quantitative PCR primers from SABiosciences (http://www.sabiosciences.com/RT2PCR.php).
Brains were dissected and incubated for 30 minutes in ice cold oxygenated artificial cerebrospinal fluid (ACSF). Brains were then sliced at 500 μm at the midbrain, −1.55 to −2.35 mm from the bregma, and at the level of the brainstem, from −4.04 to −4.48 mm and from −4.60 to −5.20 mm from the bregma, to include the median and dorsal raphe, respectively. These slices were incubated in ACSF for 1 h, constantly oxygenated (95% O2 and 5% CO2) […], after which they were treated with either osteocalcin (10 ng/ml) or PBS for four hours. Expression of Tph2, TH, GAD 1, GAD2, and Ddc was measured by qPCR.
To determine if osteocalcin acts directly on neurons to modulate neurotransmitter synthesis, several types of assays were performed. First, brainstem and midbrain explants from WT and Gprc6a^−/− mice were generated. Brains were sliced (500 μm) at the level of the median and dorsal raphe of the brainstem (from −4.04 to −4.48 mm and from −4.60 to −5.20 mm, respectively), so that they would be enriched in serotonin-producing neurons, as well as at the level of substantia nigrae and ventral tegmental areas (VTA) of the midbrain (from −1.55 to −2.35 mm and from −2.55 to −3.25 mm, respectively). Enrichment in serotoninergic and catecholaminergic neurons in these explants was verified by their high Tph2 and Th expression. While leptin, used here as a positive control, reduced, as it should, Tph2 expression in WT or Gprc6a^−/− brainstem explants, osteocalcin ([…]) increased expression of this gene 2.5 fold in both WT and Gprc6a^−/− explants. (FIG. 3D). […] Third, to further confirm that osteocalcin signals in neurons of the hindbrain, calcium flux in MPHN treated with undercarboxylated or carboxylated osteocalcin (FIG. 3F) was measured.

“osteocalcin: Recombinant osteocalcin bacterially produced, cleaved from the GST subunit; completely undercarboxylated at all three sites; full-length mouse osteocalcin (YLGASVPSPDPLEPTREQCELNPACDELSDQYGLKTAYKRIYGITI)” was tested, and the “action potential frequency in neurons of the locus coeruleus” value [1] was “decreases it”, the “action potential frequency of brainstem neurons” value [1] was “activates the action potential frequency” and the “action potential frequency of the GABAergic interneurons of the hindbrain” value [1] was “inhibits the action potential frequency”. For the same substance, the “anxiety-like behavior (D/LT and EPMT)” value (WT 2-month old mice) was “decrease in anxiety-like behavior”, the “exploration of the lit compartment and open arms (D/LT, EPM)” value (WT 2-month old mice) was “increase in the exploration of the lit compartment and open arms” and the “discrimination between novel and constant objects” value (16 month old WT mice) was “able to discriminate between the novel and constant objects”. For the same substance, the “time exploring the novel object (Novel Object Recognition)” value (16 month old WT mice) was “spent less time exploring the novel object than mice treated with vehicle alone”, the cAMP production [2] was “did not affect cAMP production” and the Gad1 expression ([3]; WT and Gprc6a−/− hindbrain explants) was “decreased Gad1 expression”. For the same substance, the Th expression ([3]; midbrain explants) was “increased Th expression” and the “increase of Tph2 expression” value ([3]; osteocalcin 3 ng/ml, WT and Gprc6a−/− brainstem explants) was 2.5 fold.
